Measured values: patent publication US9187474B2, “Raf inhibitor compounds” (Deciphera Pharmaceuticals, LLC, priority 2012, dated 2015)
Counter-ions that a name gives are not always drawn.

How the values were obtained:
A375res cells [1] = system: A375res cells
Description: (§1) A vemurafenib-resistant cell line is generated by chronic treatment of the human melanoma cell line A375 (ATCC) harboring the B-Raf V600E mutation with increasing concentrations PLX4720.

A375res cells [2] = assay: Proliferation assay in vemurafenib-resistant A375res melanoma cells; details: Homo sapiens, 72 h, read-out: absolute IC50 values
Description: as §1

[3] = system: phospho-ERK in HCT-116 cells; assay: HCT-116 cell pERK assay (AlphaScreen SureFire); type: cell-based; details: Homo sapiens; HCT-116 cells, B-Raf wild type, K-Ras mutation; 4 hours; read-out: IC50 reduction of phospho-ERK signal
Description: Examples of Formula I are tested against HCT-116 cells harboring wild type B-Raf and K-Ras mutation. The phospho-ERK activities are evaluated as described below.
HCT-116 cells (catalog #CCL-247) are obtained from the American Type Culture Collection (ATCC, Manassas, Va.). Briefly, cells are grown in McCoy's 5A supplemented with 10% characterized fetal bovine serum (Invitrogen, Carlsbad, Calif.), and 1% Penicillin/Streptomycin/L-Glutamine at 37 degrees Celsius, 5% CO2, and 95% humidity. Cells are allowed to expand until reaching 75-90% confluency at which point they are subcultured or harvested for assay use. HCT-116 cells suspended in complete media are added to 384-well tissue culture treated plates (3×10^5 cells/mL; 7,500 cells per well). The cells are incubated overnight at 37 degrees Celsius, 5% CO2, and 95% humidity. Next, test compound or DMSO diluted in complete media is added to the wells (0.25% final DMSO concentration). The plates are then incubated for 4 hours at 37 degrees Celsius, 5% CO2, and 95% humidity. Following compound incubation, the cells are lysed at 4° C. for 20 minutes with shaking Cell lysates are centrifuged and the supernatant is transferred to a new plate. An aliquot of each lysate is transferred to a white 384-well assay plate. Using the AlphaScreen SureFire pERK kit (Perkin-Elmer, Waltham, Mass.), an acceptor bead mixture is added to each well and incubated for 2 h at room temperature in the dark. A donor bead mixture is then added to each well and incubated for 2 h at room temperature in the dark. Plates are read using a Synergy2 plate reader (Biotek, Winooski, Vt.) in Plate Mode with Timing Control. Read: (F)1: excitation: 680/30 nm, emission: Plug. 2: Excitation: Plug, emission: 570/100 nm. Top mirror 635 nm. Data is analyzed using Prism software (Graphpad, San Diego, Calif.) to calculate IC50 values and Excel software (Microsoft, Redmond, Wash.) to calculate stimulation compared to control.

Row | SMILES | IC50 shift A375 to A375res (A375res cells [1]) | IC50 (A375res cells [2]) | IC50 [3]
1 | CNc1cc2nc(C)c(-c3cc(NC(=O)N[C@H]4CC[C@](C)(C#N)CC4)c(F)cc3C)cc2cn1 [Example 25, 1-(trans-4-cyano-4-methylcyclohexyl)-3-(2-fluoro-4-methyl-5-(2-methyl-7-(methylamino)-1,6-naphthyridin-3-yl)phenyl)urea] | 0.5-4.9 fold | 0.009 to 0.504 µM | 
2 | CNc1cc2nc(C)c(-c3cc(NC(=O)N[C@H]4CC[C@@](C)(C#N)CC4)c(F)cc3C)cc2cn1 [Example 26, 1-(cis-4-cyano-4-methylcyclohexyl)-3-(2-fluoro-4-methyl-5-(2-methyl-7-(methylamino)-1,6-naphthyridin-3-yl)phenyl)urea] | 0.5-4.9 fold | 0.009 to 0.504 µM | 
3 | CNc1cc2nc(C)c(-c3cc(NC(=O)NCCC4(C)CC4)c(F)cc3C)cc2cn1 [Example 27, 1-(2-fluoro-4-methyl-5-(2-methyl-7-(methylamino)-1,6-naphthyridin-3-yl)phenyl)-3-(2-(1-methylcyclopropyl)ethyl)urea hydrochloride] | 0.5-4.9 fold | 0.009 to 0.504 µM | 
4 | CNc1cc2nc(C)c(-c3cc(NC(=O)NCCC4(OC)CC4)c(F)cc3F)cc2cn1 [Example 28, 1-(2,4-difluoro-5-(2-methyl-7-(methylamino)-1,6-naphthyridin-3-yl)phenyl)-3-(2-(1-methoxycyclopropyl)ethyl)urea] | 0.5-4.9 fold | 0.009 to 0.504 µM | 
5 | CNc1cc2nc(C)c(-c3cc(NC(=O)NCC4CCCCC4)c(F)cc3C)cc2cn1 [Example 29, 1-(cyclohexylmethyl)-3-(2-fluoro-4-methyl-5-(2-methyl-7-(methylamino)-1,6-naphthyridin-3-yl)phenyl)urea hydrochloride] | 0.5-4.9 fold | 0.009 to 0.504 µM | 
6 | CCOC(C)(C)CCNC(=O)Nc1cc(-c2cc3cnc(NC)cc3nc2C)c(C)cc1F [Example 30, 1-(3-ethoxy-3-methylbutyl)-3-(2-fluoro-4-methyl-5-(2-methyl-7-(methylamino)-1,6-naphthyridin-3-yl)phenyl)urea hydrochloride] | 0.5-4.9 fold | 0.009 to 0.504 µM | 
7 | CNc1cc2nc(C)c(-c3cc(NC(=O)NCCC4(OC)CC4)c(F)cc3C)cc2cn1 [Example 31, 1-(2-fluoro-4-methyl-5-(2-methyl-7-(methylamino)-1,6-naphthyridin-3-yl)phenyl)-3-(2-(1-methoxycyclopropyl)ethyl)urea hydrochloride] | 0.5-4.9 fold | 0.009 to 0.504 µM | 
8 | CNc1cc2ncc(-c3cc(NC(=O)NCCC(C)(C)OC)c(F)cc3C)cc2cn1 [Example 32, 1-(2-fluoro-4-methyl-5-(7-(methylamino)-1,6-naphthyridin-3-yl)phenyl)-3-(3-methoxy-3-methylbutyl)urea] | 0.5-4.9 fold | 0.009 to 0.504 µM | 
9 | CNc1cc2nc(C)c(-c3cc(NC(=O)NCCCC(C)(C)OC)c(F)cc3C)cc2cn1 [Example 33, 1-(2-fluoro-4-methyl-5-(2-methyl-7-(methylamino)-1,6-naphthyridin-3-yl)phenyl)-3-(4-methoxy-4-methylpentyl)urea hydrochloride] | 0.5-4.9 fold | 0.009 to 0.504 µM | 
10 | Cc1cc(F)c(NC(=O)NCCC(C)(C)C#N)cc1-c1cc2cnc(N)cc2nc1C [Example 44, 1-(5-(7-amino-2-methyl-1,6-naphthyridin-3-yl)-2-fluoro-4-methylphenyl)-3-(3-cyano-3-methylbutyl)urea] | 0.5-4.9 fold | 0.009 to 0.504 µM | 
11 | CNc1cc2nc(C)c(-c3cc(NC(=O)NC(C)CC(C)(C)C)c(F)cc3C)cc2cn1 (centres unmarked) [Example 59, 1-(4,4-dimethylpentan-2-yl)-3-(2-fluoro-4-methyl-5-(2-methyl-7-(methylamino)-1,6-naphthyridin-3-yl)phenyl)urea] | 0.5-4.9 fold | 0.009 to 0.504 µM | 
12 | CNc1cc2nc(C)c(-c3cc(NC(=O)NCC(O)C(C)C)c(F)cc3C)cc2cn1 (centres unmarked) [Example 60, 1-(2-fluoro-4-methyl-5-(2-methyl-7-(methylamino)-1,6-naphthyridin-3-yl)phenyl)-3-(2-hydroxy-3-methylbutyl)urea] | 0.5-4.9 fold | 0.009 to 0.504 µM | 
13 | CNc1cc2nc(C)c(-c3cc(NC(=O)NCC(O)C(F)(F)F)c(F)cc3C)cc2cn1 (centres unmarked) [Example 61, 1-(2-fluoro-4-methyl-5-(2-methyl-7-(methylamino)-1,6-naphthyridin-3-yl)phenyl)-3-(3,3,3-trifluoro-2-hydroxypropyl)urea] | 0.5-4.9 fold | 0.009 to 0.504 µM | 
14 | Cc1cc(F)c(NC(=O)NCCC(C)(C)F)cc1-c1cc2cnc(NCCO)cc2nc1C [Example 65, 1-(3-fluoro-3-methylbutyl)-3-(2-fluoro-5-(7-((2-hydroxyethyl)amino)-2-methyl-1,6-naphthyridin-3-yl)-4-methylphenyl)urea] | 0.5-4.9 fold | 0.009 to 0.504 µM | 
15 | CNc1cc2nc(C)c(-c3cc(NC(=O)N[C@H](C)CC(C)(C)C)c(F)cc3C)cc2cn1 [Example 72, (R)-1-(4,4-dimethylpentan-2-yl)-3-(2-fluoro-4-methyl-5-(2-methyl-7-(methylamino)-1,6-naphthyridin-3-yl)phenyl)urea] | 0.5-4.9 fold | 0.009 to 0.504 µM | 
16 | COC(C)(C)CCNC(=O)Nc1cc(-c2cc3cnc(N)cc3nc2C)c(C)cc1F [Example 80, 1-(5-(7-amino-2-methyl-1,6-naphthyridin-3-yl)-2-fluoro-4-methylphenyl)-3-(3-methoxy-3-methylbutyl)urea hydrochloride] | 0.5-4.9 fold | 0.009 to 0.504 µM | 
17 | Cc1cc(F)c(NC(=O)NCCC(C)(C)F)cc1-c1cnc2cc(N)ncc2c1 [Example 81, 1-(5-(7-amino-1,6-naphthyridin-3-yl)-2-fluoro-4-methylphenyl)-3-(3-fluoro-3-methylbutyl)urea] | 0.5-4.9 fold | 0.009 to 0.504 µM | 
18 | Cc1cc(F)c(NC(=O)NC2CCCCCC2)cc1-c1cc2cnc(N)cc2nc1C [Example 82, 1-(5-(7-amino-2-methyl-1,6-naphthyridin-3-yl)-2-fluoro-4-methylphenyl)-3-cycloheptylurea] | 0.5-4.9 fold | 0.009 to 0.504 µM | 
19 | CNc1cc2nc(C)c(-c3cc(NC(=O)NCCCC(F)(F)F)c(F)cc3C)cc2cn1 [Example 91, hydrochloride] | 0.5-4.9 fold | 0.009 to 0.504 µM | 
20 | CNc1cc2nc(C)c(-c3cc(NC(=O)NCCC4CCC4)c(F)cc3C)cc2cn1 [Example 97, 1-(2-cyclobutylethyl)-3-(2-fluoro-4-methyl-5-(2-methyl-7-(methylamino)-1,6-naphthyridin-3-yl)phenyl)urea hydrochloride] | 0.5-4.9 fold | 0.009 to 0.504 µM | 
21 | CNc1cc2nc(C)c(-c3cc(NC(=O)NCCCC(C)(F)F)c(F)cc3C)cc2cn1 [Example 99, 1-(4,4-difluoropentyl)-3-(2-fluoro-4-methyl-5-(2-methyl-7-(methylamino)-1,6-naphthyridin-3-yl)phenyl)urea hydrochloride] | 0.5-4.9 fold | 0.009 to 0.504 µM | 
22 | CNc1cc2nc(C)c(-c3cc(NC(=O)N[C@H]4C[C@@](C)(F)C4)c(F)cc3C)cc2cn1 [Example 100, 1-(3-fluoro-trans(3-methylcyclobutyl))-3-(2-fluoro-4-methyl-5-(2-methyl-7-(methylamino)-1,6-naphthyridin-3-yl)phenyl)urea] | 0.5-4.9 fold | 0.009 to 0.504 µM | 
23 | CNc1cc2nc(C)c(-c3cc(NC(=O)NCCCC(C)(C)F)c(F)cc3C)cc2cn1 [Example 101, 1-(2-fluoro-4-methyl-5-(2-methyl-7-(methylamino)-1,6-naphthyridin-3-yl)phenyl)-3-(4-fluoro-4-methylpentyl)urea hydrochloride] | 0.5-4.9 fold | 0.009 to 0.504 µM | 
24 | Cc1nc2cc(NC(=O)C3CC3)ncc2cc1-c1cc(NC(=O)NCCC2CC2)c(F)cc1F [Example 123, N-(3-(5-(3-(2-cyclopropylethyl)ureido)-2,4-difluorophenyl)-2-methyl-1,6-naphthyridin-7-yl)cyclopropanecarboxamid hydrochloride] | 0.5-4.9 fold | 0.009 to 0.504 µM | 
25 | Cc1cc(F)c(NC(=O)NCCC(C)(C)C)cc1-c1cc2cnc(N)cc2nc1C [Example 129, 1-(5-(7-amino-2-methyl-1,6-naphthyridin-3-yl)-2-fluoro-4-methylphenyl)-3-(3,3-dimethylbutyl)urea hydrochloride] |  | 0.009 to 0.504 µM | 0.002 to 0.096 µM
